In patent US20230183193A1, “4-DIFLUOROMETHYL BENZOYL AMIDES WITH HERBICIDAL ACTION” (BAYER CROPSCIENCE AKTIENGESELLSCHAFT, priority 2017, published 2023):

How the values were obtained:
Type in all cases: in vivo
Abutilon theophrasti [1] = test: Pre-emergence herbicidal action, ABUTH; settings: dosage 320 g/ha, scored visually after 3 weeks vs untreated controls
Method in brief: (§1)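 Weed seeds were laid out in sandy loam and covered with soil, then the soil surface was treated with an aqueous suspension or emulsion of the formulated compound containing 0.2% wetting agent. Pots stayed in the greenhouse for 3 weeks before damage was rated visually against untreated plants.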

Alopecurus myosuroides [2] = test: Pre-emergence herbicidal action, ALOMY; settings: dosage 320 g/ha, scored visually after 3 weeks vs untreated controls
Method in brief: as §1

Amaranthus retroflexus [3] = test: Pre-emergence herbicidal action, AMARE; settings: dosage 320 g/ha, scored visually after 3 weeks vs untreated controls
Method in brief: as §1

Avena fatua [4] = test: Pre-emergence herbicidal action, AVEFA; settings: dosage 320 g/ha, scored visually after 3 weeks vs untreated controls
Method in brief: as §1

Cyperus serotinus = test: Pre-emergence herbicidal action, CYPES; settings: dosage 320 g/ha, scored visually after 3 weeks vs untreated controls
Method in brief: as §1

Matricaria inodora = test: Pre-emergence herbicidal action, MATIN; settings: dosage 320 g/ha, scored visually after 3 weeks vs untreated controls
Method in brief: as §1

Setaria viridis [5] = test: Pre-emergence herbicidal action, SETVI; settings: dosage 320 g/ha, scored visually after 3 weeks vs untreated controls
Method in brief: as §1

Stellaria media [6] = test: Pre-emergence herbicidal action, STEME; settings: dosage 320 g/ha, scored visually after 3 weeks vs untreated controls
Method in brief: as §1

Viola tricolor [7] = test: Pre-emergence herbicidal action, VIOTR; settings: dosage 320 g/ha, scored visually after 3 weeks vs untreated controls
Method in brief: as §1

Abutilon theophrasti [8] = test: Post-emergence herbicidal action, ABUTH; settings: 80 g/ha, Table D
Method in brief: (§2)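 Greenhouse-grown plants were sprayed at the one-leaf stage, 2–3 weeks after sowing. Damage was scored visually after about 3 weeks against untreated controls, as % action (100% = dead, 0% = like control).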

Alopecurus myosuroides [9] = test: Post-emergence herbicidal action, ALOMY; settings: 80 g/ha, Table C
Method in brief: as §2

Amaranthus retroflexus [10] = test: Post-emergence herbicidal action, AMARE; settings: 80 g/ha, Table D
Method in brief: as §2

Avena fatua [11] = test: Post-emergence herbicidal action, AVEFA; settings: 80 g/ha, Table C
Method in brief: as §2

Pharbitis purpureum = test: Post-emergence herbicidal action, PHBPU; settings: 80 g/ha, Table D
Method in brief: as §2

Setaria viridis [12] = test: Post-emergence herbicidal action, SETVI; settings: 80 g/ha, Table C
Method in brief: as §2

Stellaria media [13] = test: Post-emergence herbicidal action, STEME; settings: 80 g/ha, Table D
Method in brief: as §2

Viola tricolor [14] = test: Post-emergence herbicidal action, VIOTR; settings: 80 g/ha, Table D
Method in brief: as §2

ECHCG = test: Post-emergence herbicidal action, ECHCG; settings: 80 g/ha, Table C
Method in brief: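 Weed and crop plants grown in sandy loam in the greenhouse, treated at the one-leaf stage 2–3 weeks after sowing. Damage scored visually after about 3 weeks vs untreated controls (0% = control, 100% = dead).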

Row | Structure (SMILES) | herbicidal activity ABUTH (Abutilon theophrasti [1]) [%] | herbicidal activity ALOMY (Alopecurus myosuroides [2]) [%] | herbicidal activity AMARE (Amaranthus retroflexus [3]) [%] | herbicidal activity AVEFA (Avena fatua [4]) [%] | herbicidal activity CYPES (Cyperus serotinus) [%] | herbicidal activity MATIN (Matricaria inodora) [%] | herbicidal activity SETVI (Setaria viridis [5]) [%] | Herbicidal activity STEME (Stellaria media [6]) [%] | herbicidal activity VIOTR (Viola tricolor [7]) [%] | herbicidal activity ABUTH (Abutilon theophrasti [8]) [%] | herbicidal activity ALOMY (Alopecurus myosuroides [9]) [%] | herbicidal activity AMARE (Amaranthus retroflexus [10]) [%] | herbicidal activity AVEFA (Avena fatua [11]) [%] | Herbicidal activity PHBPU (Pharbitis purpureum) [%] | herbicidal activity SETVI (Setaria viridis [12]) [%] | Herbicidal activity STEME (Stellaria media [13]) [%] | herbicidal activity VIOTR (Viola tricolor [14]) [%] | Herbicidal activity ECHCG (ECHCG) [%]
1 | CCSc1c(C(F)F)ccc(C(=O)Nc2nnnn2CC)c1C1CC1 [Example 2-28] | 100 | 100 | 100 | 100 | 100 | 100 | 100 | 100 | 100 | 100 | 90 | 100 | 100 | 100 | 100 | 100 | 100 | 100
2 | CC[S+]([O-])c1c(C(F)F)ccc(C(=O)Nc2nnnn2C)c1C (stereo not drawn) [Example 1-5] | 100 | 100 | 100 | 100 | 100 | 100 | 100 | 90 | 100 | 90 | 100 | 100 | 100 | 100 | 100 | 100 | 100 | 100
3 | CSc1c(C(F)F)ccc(C(=O)Nc2nnnn2C)c1C1CC1 [Example 1-25] | 100 | 100 | 100 | 100 | 100 | 100 | 100 | 100 | 100 | 100 | 100 | 100 | 100 | 100 | 100 | 100 | 100 | 100
4 | CCc1c(C(=O)Nc2nnc(C)o2)ccc(C(F)F)c1S(C)(=O)=O [Example 7-13] | 100 | 100 | 100 | 100 | 100 | 100 | 100 | 100 | 100 | 100 | 90 | 100 | 100 | 100 | 100 | 100 | 100 | 100
5 | CC[S+]([O-])c1c(C(F)F)ccc(C(=O)Nc2ncnn2C)c1Cl (stereo not drawn) [Example 4-53] | 100 | 100 | 100 | 100 | 100 | 100 | 100 | 100 | 100 | 100 | 90 | 100 | 100 | 90 | 100 | 90 | 100 | 90
6 | CCSc1c(C(F)F)ccc(C(=O)Nc2nnnn2CC)c1CC [Example 2-16] | 100 | 100 | 100 | 100 | 100 | 100 | 100 | 100 | 100 | 100 | 90 | 100 | 90 | 100 | 90 | 100 | 100 | 90
7 | CCn1nnnc1NC(=O)c1ccc(C(F)F)c(S(=O)(=O)CC)c1I [Example 2-78] | 100 | 100 | 100 | 100 | 100 | 100 | 100 | 100 | 100 | 80 | 80 | 100 | 90 | 90 | 90 | 100 | 90 | 90
